Blank lines part the entries; values can stand above or below the compound they belong to.
Columns and labels:
[1] = system: melanocytes (melanin production); assay: In vitro melanocyte comparative analysis via absorbance readings (Example 4); type: cell-based; settings: for regulation of melanogenesis (decrease of absorption = decreased melanin formation): Table 8; for Absorbance 405 nm / Absorbance 490 nm / Absorbance 492 nm: melanocyte lysates
Protocol: Melanocytes were cultured in 6-well plates containing growth media. Once confluent, 2 concentrations of each of the 10 compounds were added to the cells in triplicate wells for 4 days. There were a total of eleven 6-well plates, one for each compound treatment and one for the vehicle control. Absorbance readings were taken on the lysates prepared for each well of the 6-well plates, normalizing for cells counts. […] Additional validation was carried out using MSH addition to media to confirm increased stimulation of melanin production. The following compounds used in this study are seen in Table 7.

[2] = system: MITF; assay: In vitro MITF gene expression test in cultured fibroblasts; type: cell-based; settings: 48 hours
Protocol: Microphthalmia-associated transcription factor (MITF) is a master regulator of pigmentation and melanin transfer and a potential new target for hyperpigmentation and melanoma. In vitro MITF gene expression tests were carried out to ascertain differences between individual peptides (tripeptide-1 and hexapeptide-12) and their combination in terms of MITF downregulation.
Specifically, the tests were conducted by culturing fibroblasts and then adding tripeptide-1, hexapeptide-12, or a combination of both. After 48 hours, MITF gene expression was analyzed.

[3] = system: EDN1 and other melanogenic genes in HUVECs; assay: Gene expression study (RNA sequencing) in HUVECs; type: cell-based, human; settings: 24 hours of compound exposure
Protocol: (§1) Four cell types associated with pigmentation pathways-melanocytes, keratinocytes, fibroblasts and endothelial (HUVEC) cells-were analyzed for gene expression.
(§2) To simulate the UV stimulatory pigmentation pathway process, melanocytes were pre-treated with PGE2, a normal direct consequence of UV light exposure usually emanating from exposed keratinocytes. After the 48 hour attachment culture, these melanocytes were induced with 10 uM PGE2 in melanocyte media for 24 hrs. The four primary human adult dermal cell lines were cultured and plated in well plates in triplicate and then treated with 11 different compound treatments (plus DMSO control). After 48 hours of attachment culture, the remaining fibroblasts, HUVECs and keratinocytes were treated with the test compounds listed in Table 6.
(§3) After 24 hours of compound exposure, RNA lysate preparation was carried out and samples were shipped to MedGenome for RNA extraction, library construction and sequencing to 25M paired end 100 bp reads per sample. Library prep and sequencing was completed at MedGenome.

[4] = system: melanogenic genes; assay: Cell line melanogenic gene activity testing, overall conclusion; type: cell-based, human; settings: conclusion over melanocytes, keratinocytes, HUVECs
Protocol: as §1, §2, §3

[5] = system: pigmented reconstructed epidermis; settings: cited from earlier work
[6] = system: UV-B-induced hyperpigmentation; settings: topical application for 4 weeks, mice skin; cited from earlier work
[7] = system: hTERT-immortalized dermal melanocytes; settings: human
Protocol: (§4) Melanocytes were initially plated in 6-well tissue culture plate (1.5×10^3 cells per well) in melanocyte growth media (Dermal Cell Basal Medium (ATCC® PCS-200-030 supplemented with Melanocyte Growth Kit (ATCC® PCS-200-041). Melanocytes were then expanded into 10 cm tissue culture plates at concentrations recommended by ATCC. The cells appear to fully adhere to the plate/dish while culturing with a webbed morphology. Cells were cultured at 37° C. 5% CO2 incubator.
(§5) Once the melanocytes were 100% confluent in 6-well plates, the melanocyte growth media was removed and the melanocytes were treated with media containing the above compounds; duplicate wells for each compound/concentration listed above. The duplicate vehicle control wells were fed melanocyte growth media only or melanocyte growth media with DMSO (10 uL per 10 mL melanocyte growth media).
(§6) The cells were fed the appropriate media for the next 5 days. Each day, the cells were inspected for morphology.

[8] = system: hTERT-immortalized dermal melanocytes; assay: Melanocyte assay, daily inspection of morphology and survival (Example 6); settings: both concentrations of the compound
Protocol: as §4, §5, §6

[9] = system: melanogenic genes in melanocytes; assay: Gene expression study (RNA sequencing) in PGE2-induced melanocytes; type: cell-based, human
Protocol: as §1, §2, §3

[10] = system: PMEL, tyrosinase genes, MC1/4R, EDNRB, MITF, ERK1/2, JNK, AKT1; assay: Gene expression studies of Example 5; type: cell-based
Text: The methods similar to Examples 3-4 were used to measure expression of PMEL, tyrosinase genes, MC1/4R, EDNRB, MITF, ERK1/2, JNK, and ANKT1.
FIGS. 10A-10D illustrates the expression of PMEL (FIG. 10A), Tyrosinase genes (FIG. 10B), MC1/4R (FIG. 10C), and EDNRB (FIG. 10D) after treatment of endothelial cells with lactoferrin (Lacto), peptide derived from lactoferrin (TCV), hexapeptide-12 (Hex12), tripeptide-1 and hexapeptide-12 (TriHex), hexapeptide-11 (Hex11), tranexamic acid (Tran acid) octapeptide (Octa), phosphatidylserine (phos), Cannabidiol (CBD), and all (total).
MITF is regulated by phosphorylation. Specifically, the MAPK and Akt pathways are known to phosphorylate MITF at certain sites. FIGS. 12A-12C illustrate the expression of ERK1/2 (MAPK3/MAPK1) (FIG. 12A), JNK (FIG. 12B), AKT1 (FIG. 12C) after treatment of endothelial cells with lactoferrin (Lacto), peptide derived from lactoferrin (TCV), hexapeptide-12 (Hex12), tripeptide-1 and hexapeptide-12 (TriHex), hexapeptide-11 (Hex11), octapeptide (Octa), phosphatidylserine (phos), Cannabidiol (CBD), and all (total).

[11] = system: carrageenan-induced inflammation; settings: rats; cited from earlier work
[12] = system: SCF, LIF, POMC, endothelin genes, PGE2, NGF in keratinocytes; assay: Gene expression study (RNA sequencing) in keratinocytes; type: cell-based, human; settings: 24 hours of compound exposure
Protocol: as §1, §2, §3

Compound: Oc1ccc2c(c1)OCO2 [Sesamol]
- regulation of melanogenesis (decrease of absorption = decreased melanin formation) ([1]; melanocytes): Regulation of melanogenesis was also observed

Compound: Tripeptide-1
- MITF gene expression ([2]; 120 xppm Tripeptide, positive = upregulation): 1.72
- MITF gene expression ([2]; 120 xppm Tripeptide, positive = upregulation, listed as tripeptide-1): +1.72

Compound: Phosphatidylserine
- activity on EDN1 and other melanogenic genes (FIG. 9) [3]: potent activity
- effects on melanogenesis activity [4]: significant effects on melanogenesis activity
- regulation of melanogenesis (decrease of absorption = decreased melanin formation) ([1]; melanocytes): Regulation of melanogenesis was observed

Compound: COc1ccc([C@@H]2CC(=O)c3c(O)cc(O[C@@H]4O[C@H](CO[C@@H]5O[C@@H](C)[C@H](O)[C@@H](O)[C@H]5O)[C@@H](O)[C@H](O)[C@H]4O)cc3O2)cc1O [Hesperidin]
- skin lightening effect [5]: showed skin lightening effect

Compound: O=C(O)c1cc(O)c(O)c(O)c1 [GA, Gallic acid]
- UV-B-induced hyperpigmentation [6]: significantly rescued

Compound: C/C=C1/[C@H](O[C@@H]2O[C@H](CO)[C@@H](O)[C@H](O)[C@H]2O)OC=C(C(=O)OC)[C@H]1CC(=O)OCCc1ccc(O)c(O)c1 [Oleuropein]
- time post-initial dosing at which all or nearly all melanocytes were dead [7]: 72 h
- time post-initial dosing at which melanocytes started dying [8]: 24 h

- melanogenic activity (expression of PMEL, Tyrosinase genes, MC1/4R, EDNRB; FIGS. 10A-10D) ([10]; after treatment of endothelial cells): robust melanogenic activity
- effects on melanogenic activity (kinase expression linked to decreased MITF expression) ([10]; conclusion of Example 5): significant effects
Compound: Hexapeptide-12 [HEX-12]
- MITF gene expression ([2]; 80 ppm Hexapeptide, negative = downregulation): −1.16
- melanogenic activity (FIGS. 3A-3D) ([9]; melanocytes pre-treated with 10 uM PGE2, 24 hours of compound exposure): particularly dominant in melanogenic activity
- expression of melanogenic genes (FIG. 4, FIG. 5) ([9]; melanocytes, 24 hours of compound exposure): downregulation of melanogenic genes
- effects on melanogenesis activity [4]: significant effects on melanogenesis activity
- Absorbance 405 nm ([1]; 2.9 ug/mL): 1.32
- Absorbance 490 nm ([1]; 2.9 ug/mL): 0.94
- Absorbance 492 nm ([1]; 2.9 ug/mL): 0.64
- Absorbance 405 nm ([1]; 4.9 ug/mL): 0.96
- Absorbance 490 nm ([1]; 4.9 ug/mL): 0.64
- Absorbance 492 nm ([1]; 4.9 ug/mL): 0.46
- stimulation of melanin production (model validation) ([1]; melanocytes): decreased stimulation
- regulation of melanogenesis (decrease of absorption = decreased melanin formation) ([1]; melanocytes): Regulation of melanogenesis was observed

Compound: C=C(C)[C@@H]1CCC(C)=C[C@H]1c1c(O)cc(CCCCC)cc1O [CBD, Cannabidiol]
- PGE2, nitric oxide (NO), and malondialdehyde production, together with COX activity [11]: reduced

Compound: NC[C@H]1CC[C@H](C(=O)O)CC1 [Tranexamic Acid, Tranexamic acid, reference compound]
- regulation of melanogenesis (decrease of absorption = decreased melanin formation) ([1]; melanocytes): Regulation of melanogenesis was also observed

Compound: Hexapeptide-11 [HEX-11]
- melanogenesis activity (FIGS. 6A-6F, FIG. 7) [12]: active ingredient in melanogenesis activity
- effects on melanogenesis activity [4]: significant effects on melanogenesis activity
- regulation of melanogenesis (decrease of absorption = decreased melanin formation) ([1]; melanocytes): Regulation of melanogenesis was observed

— patent US12485079B2, “Compositions and methods relating to pigmentation” (Alastin Skincare, Inc., priority 2020, dated 2025)
